According to paper PMC5931096, “A Phase I study of the novel immunomodulatory agent PG545 (pixatimod) in subjects with advanced solid tumours” (British Journal of Cancer, 2018):

Test: Phase I dose-escalation: safety, tolerability, DLT and MTD of weekly 1-h IV infusion
Assay type: in vivo
Conditions: Safety Set
Method: The study was an open-label, multicentre, phase 1 dose-escalation study using a 3 + 3 design. The primary objective was to determine the MTD of weekly administered PG545 via IV infusion. Secondary objectives were to characterize safety, tolerability, clinical activity, PK and PD biomarkers.
Patients continued treatment until disease progression, unacceptable toxicity or withdrawal (either voluntarily or investigator-decision).
All patients were assessed for safety, those who received at least one dose of PG545 were evaluated for efficacy. Safety assessment included the incidence of all adverse events (AEs), irrespective of relationship to study drug, according to the National Cancer Institute Common Terminology Criteria for Adverse Events, version 4.0, and the incidence of patients experiencing dose modifications and/or premature discontinuation of study drug. Dose-limiting toxicities (DLTs) used to determine the MTD were defined as occurring during Cycle 1 of treatment only and related to PG545 according to investigator assessment. If no DLT occurred in the first three subjects, the next three-subject cohort was enrolled at the next highest available dose level. If a single DLT occurred, an additional three subjects was enrolled at the same dose level. Dose escalation continued until two subjects of the cohort experienced a DLT; this was defined as the toxic dose level. The dose-escalation phase was completed and MTD determined by reducing the dose to the next lowest dose compared to the toxic dose and expanding this cohort to at least 6 subjects.

CC(C)CCC[C@@H](C)[C@H]1CC[C@H]2[C@@H]3CC[C@H]4C[C@@H](O[C@@H]5O[C@H](COS(=O)(=O)O)[C@@H](O[C@H]6O[C@H](COS(=O)(=O)O)[C@@H](O[C@H]7O[C@H](COS(=O)(=O)O)[C@@H](O[C@H]8O[C@H](COS(=O)(=O)O)[C@@H](OS(=O)(=O)O)[C@H](OS(=O)(=O)O)[C@H]8OS(=O)(=O)O)[C@H](OS(=O)(=O)O)[C@H]7OS(=O)(=O)O)[C@H](OS(=O)(=O)O)[C@H]6OS(=O)(=O)O)[C@H](OS(=O)(=O)O)[C@H]5OS(=O)(=O)O)CC[C@]4(C)[C@H]3CC[C@]12C [PG545]
7 (30.4%): TEAE: General disorders and administration site conditions (Mild, Unrelated)
6 (26.1%): TEAE: Respiratory, thoracic and mediastinal disorders (Mild, Unrelated) | TEAE: Gastrointestinal disorders (Moderate, Unrelated)
13 (56.5%): TEAE: Gastrointestinal disorders (Mild, Unrelated) | TEAE: At least one event (Moderate, Related)
4 (17.4%): TEAE: Infections and infestations (Mild, Unrelated) | TEAE: Gastrointestinal disorders (Moderate, Related) | TEAE: Infusion related reaction (Moderate, Related) | TEAE: Metabolism and nutritional disorders (Moderate, Related)
2 (8.7%): TEAE: Chest pain (Mild, Unrelated) | TEAE: Cough (Mild, Unrelated) | TEAE: Fatigue (Mild, Unrelated) | TEAE: Lethargy (Mild, Unrelated) | TEAE: Metabolism and nutritional disorders (Mild, Unrelated) | TEAE: Mucosal inflammation (Mild, Unrelated) | TEAE: Pain in extremity (Mild, Unrelated) | TEAE: Upper respiratory tract infection (Mild, Unrelated) | TEAE: Vascular disorders (Mild, Unrelated) | TEAE: Chills (Moderate, Related) | TEAE: Decreased appetite (Moderate, Related) | TEAE: Fatigue (Moderate, Related) | TEAE: Hypercholesterolaemia (Moderate, Related) | TEAE: Hypertension (Moderate, Related) | TEAE: Vascular disorders (Moderate, Related) | TEAE: Abdominal pain upper (Moderate, Unrelated) | TEAE: Anaemia (Moderate, Unrelated) | TEAE: Blood and lymphatic system disorders (Moderate, Unrelated)
4 (17.5%): TEAE: General disorders and administration site conditions (Moderate, Related)
14 (60.9%): TEAE: At least one event (Moderate, Unrelated)
1 (4.3%): TEAE: Blood creatinine increased (Mild, Unrelated) | TEAE: Chest discomfort (Mild, Unrelated) | TEAE: Decreased appetite (Mild, Unrelated) | TEAE: Deep vein thrombosis (Mild, Unrelated) | TEAE: Dry mouth (Mild, Unrelated) | TEAE: Dry skin (Mild, Unrelated) | TEAE: Dyspepsia (Mild, Unrelated) | TEAE: Fungal infection (Mild, Unrelated) | TEAE: Gastroesophageal reflux disease (Mild, Unrelated) | TEAE: Haematochezia (Mild, Unrelated) | TEAE: Headache (Mild, Unrelated) | TEAE: Hypercalcaemia (Mild, Unrelated) | TEAE: Hypertension (second line of this name) (Mild, Unrelated) | TEAE: Hypokalaemia (Mild, Unrelated) | TEAE: Influenza like illness (Mild, Unrelated) | TEAE: Malaise (Mild, Unrelated) | TEAE: Musculoskeletal chest pain (Mild, Unrelated) | TEAE: Neutrophil count increased (Mild, Unrelated) | TEAE: Onycholysis (Mild, Unrelated) | TEAE: Oropharyngeal pain (Mild, Unrelated) | TEAE: Pain (Mild, Unrelated) | TEAE: Pruritus (Mild, Unrelated) | TEAE: Vulvovaginal candidiasis (Mild, Unrelated) | TEAE: White blood cell count increased (Mild, Unrelated) | TEAE: aPTT prolonged (Mild, Unrelated) | TEAE: Constipation (Moderate, Related) | TEAE: Dehydration (Moderate, Related) | TEAE: Diarrhoea (Moderate, Related) | TEAE: Dyspnoea (Moderate, Related) | TEAE: Fall (Moderate, Related) | TEAE: GGT increased (Moderate, Related) | TEAE: Hyperlipidaemia (Moderate, Related) | TEAE: Investigations (Moderate, Related) | TEAE: Lethargy (Moderate, Related) | TEAE: Nausea (Moderate, Related) | TEAE: Nervous system disorders (Moderate, Related) | TEAE: Pyrexia (Moderate, Related) | TEAE: Respiratory, thoracic and mediastinal disorders (Moderate, Related) | TEAE: Vomiting (Moderate, Related) | TEAE: AST increased (Moderate, Unrelated) | TEAE: Abdominal distension (Moderate, Unrelated) | TEAE: Abdominal pain lower (Moderate, Unrelated) | TEAE: Arthralgia (Moderate, Unrelated) | TEAE: Blood ALP increased (Moderate, Unrelated) | TEAE: Blood bilirubin increased (Moderate, Unrelated) | TEAE: Constipation (Moderate, Unrelated) | TEAE: Cough (Moderate, Unrelated) | TEAE: Depression (Moderate, Unrelated) | TEAE: Diplopia (Moderate, Unrelated) | TEAE: Dry mouth (Moderate, Unrelated) | TEAE: Eye disorders (Moderate, Unrelated) | TEAE: GGT increased (Moderate, Unrelated) | TEAE: Gait disturbance (Moderate, Unrelated)
5 (21.7%): TEAE: Constipation (Mild, Unrelated) | TEAE: Dyspnoea (Mild, Unrelated) | TEAE: Musculoskeletal and connective tissue disorders (Mild, Unrelated) | TEAE: Nervous system disorders (Mild, Unrelated) | TEAE: Psychiatric disorders (Mild, Unrelated) | TEAE: Vomiting (Mild, Unrelated) | TEAE: Injury, poisoning and procedural complications (Moderate, Related)
3 (13.0%): TEAE: Depression (Mild, Unrelated) | TEAE: Diarrhoea (Mild, Unrelated) | TEAE: Insomnia (Mild, Unrelated) | TEAE: Investigations (Mild, Unrelated) | TEAE: Nausea (Mild, Unrelated) | TEAE: Skin and subcutaneous tissue disorders (Mild, Unrelated) | TEAE: Abdominal pain (Moderate, Unrelated) | TEAE: Back pain (Moderate, Unrelated) | TEAE: Decreased appetite (Moderate, Unrelated) | TEAE: Dyspnoea (Moderate, Unrelated) | TEAE: Fatigue (Moderate, Unrelated)
